Common to all, as to type: in vivo
In test [1] the test system is corn. Kind of test: SDI split plot field study, 113 day maturity corn hybrid, Examples 13-14. As to conditions: 50% irrigated deficit. The protocol: A randomized complete block (split plot) study using Subsurface Drip Irrigation (SDI) was conducted on a deep silt loam soil using a 113 day maturity corn hybrid. This trial was conducted to quantify the impact of treatments on grain yield and water productivity of corn under limited (deficit) and fully-irrigated setting. The study utilized a subsurface drip irrigation (SDI) system with a nominal dripline flowrate of 0.25 gpm/100 ft for a 5-ft dripline spacing and 24-inch emitter spacing, installed at a depth of 16-18 inches. Irrigation control panels, chemical injection pumps, and filters were housed at the irrigation well house to manage irrigation and chemigation events.
The field study was set up as a randomized complete plot design with three replications on silt loam soil.
Each plot was 8 rows wide (6.1 meters) by 15 meters long. Soil water status was monitored throughout the growing season using soil moisture sensors. Corn seed was planted with a precision planter at a depth of 2 inches and rows spaced at 30 inches. The planting population was 30,000 seeds per acre. Testing parameters, and irrigation levels were conducted according to the Kansas State University experimental procedure [see, e.g.,: (1) Lamm, F. R., A. J. Schlegel, and G. A. Clark. 2003. Development of a Best Management Practice for Nitrogen Fertigation of Corn Using SDI. Appl. Engr in Agric. and (2) Lamm, F. R., H. L. Manges, L. R. Stone, A. H. Khan, and D. H. Rogers. 1995. Water requirement of subsurface drip-irrigated corn in northwest Kansas. Trans. ASAE, 38(2):441-448.]. Moisture levels, irrigation levels, evapotranspiration, and plant health were measured throughout the growing season. Climatic variables were measured (air temperature, rainfall, solar and net radiation, relative humidity, rainfall, wind speed and direction) throughout the season.
Irrigation for the fully irrigated treatments was scheduled according to need by a climatic water budget using calculated evapotranspiration as a withdrawal and with rainfall and irrigation as deposits. Irrigation amounts for each event for the fully irrigated plots were generally 0.5 inches for each event. The deficit irrigation treatments were scheduled at approximately 50% of the fully irrigated plots (5.9 inches/acre vs. 13.55 inches of water/acre). Volumetric soil water content was measured in one-foot increments to a depth of 8 ft on an approximately weekly basis throughout the crop season to determine total water use. Crop water use was calculated as the sum of irrigation, precipitation and changes in soil water between the initial and final soil water sampling dates. Water productivity was calculated as the crop yield divided by the seasonal water use. Maintenance crop protection products were applied as needed to manage weeds and pests throughout the season for all treatments including the control. Moddus (trinexapac-ethyl) was foliar-applied (tractor mounted sprayer) twice at a rate of 250 gai/ha at approximately the V3+V7 stages of the corn. Azoxystrobin (Quadris) was applied twice via drip irrigation at a rate of 0.8 fl. oz/1000 linear ft (261 gai/ha) at approximately V6 & R1 stages of the corn. Crop yield from each replication was recorded after harvest and adjusted to 15% moisture content. Corn yield components of crop grain yield, plants/area, ears/plant, and kernel weight were measured by hand harvesting a representative sample (20 feet long for one crop row near the center of each subplot).

Test [2] concerns corn. Briefly: SDI chemigation field study on grain yield under rainfed conditions, Examples 17-19. As to conditions: for Yield: optimum nitrogen rate 200 lbs. N/acre. As for the experimental part:
A chemigation study using Subsurface Drip Irrigation (SDI) was conducted to quantify the impact of treatment effects on grain yield under rainfed conditions. The field study was set up as a randomized complete plot design (split plot) with three replications on silt loam soil. Each plot was 8 rows wide (6.1 meters) by 34 meters long. Soil water status was monitored on an hourly basis every 30 cm up to 1.2 meters throughout the growing season using soil moisture sensors. Corn seed was planted with a precision planter at a depth of 2 inches and rows spaced at 30 inches. The planting population was 30,000 seeds per acre. Testing parameters and harvesting were conducted according to the University of Nebraska experimental procedure (see, e.g.,: Irmak, S, D. Z. Haman, and R. Bastug. Determination of Crop Water Stress Index for irrigation Timing and Yield Estimation of Corn. 2000. Agronomy Journal. 92:1221-1227). Moisture levels, evapotranspiration, and plant health were measured throughout the growing season. All microclimatic variables were measured (air temperature, rainfall, solar and net radiation, relative humidity, rainfall, wind speed and direction) so that the researcher could quantify the range of the microclimatic conditions under which this research was conducted to define the boundaries of experimental conditions.
No irrigation was applied to rainfed plots. […] Maintenance crop protection products were applied as needed to manage weeds and pests throughout the season for all treatments including the control. Azoxystrobin (Quadris) was applied twice via drip irrigation at a rate of 0.8 fl. oz/1000 linear ft (261 gai/ha) or by foliar application (tractor mounted sprayer) at 14 fl. oz./acre (261 gai/ha) at approximately the V6 & R1 stages of the corn. Moddus (trinexapac-ethyl) was foliar-applied (tractor mounted sprayer) once at a rate of 250 gai/ha at approximately the V7 stage of the corn. Crop yield from each replication was recorded after harvest and adjusted to 15.5% moisture content.

Test [3] has as its system corn. Briefly: Greenhouse sub-surface chemigation, yield and root architecture under deficit water, Examples 20-23. As to conditions: for Yield (% difference from UTC) / Relative number of fine roots (% difference from UTC): sub-surface chemigation at V3/V4, maximum labeled rates, 50% plant-available water; for Relative number of fine roots (% difference from UTC): within 2 weeks of harvest; for Yield compared with the control, statistical statement: sub-surface chemigation, abiotic stress, P values <0.001 at the 95th percentile confidence interval. An excerpt: In this experiment, standardized growth conditions were applied across all corn treatments including: soil-water availability, soil texture and composition, soil chemical and physical properties, meteorological and environmental parameters, and plant nutrition in a greenhouse. No indication of plant disease or pest damage was observed over the course of the study and no pest management program was necessary. A homogeneous sand-organic matter soil mixture (0.18% organic matter) was used as the growth medium in 55-gal containers. These containers were used as a weighing lysimeter, where daily changes in system weight were used to calculate plant transpiration. Four corn plants were grown in each 55-gal container. Three 55-gal containers (12 plants total) made up each treatment. All irrigation and chemical treatments were applied via sub-surface irrigation. Chemical treatments consisted of: azoxystrobin (Quadris), paclobutrazol (Trimmit), trinexapac-ethyl (Moddus), and propiconazole (Tilt) at maximum labeled rates.
Corn plants were grown from seed and transplanted in the 55-gal drums approximately 14 days after planting. Uniform adequate irrigation was applied up to growth stage V3/V4 to ensure plant establishment. Chemical treatment applications were applied at growth stage V3/V4 via sub-surface chemigation. At stage V3/V4, irrigation was decreased to replicate deficit water conditions across all treatments for the remainder of the study period. Irrigation was managed daily to maintain 50% plant-available water. Visual signs of abiotic plant stress were observed approximately 30 days after chemical application. All corn plants were grown to yield and cobs were harvested when kernels were uniformly dry (15% moisture content). Root architecture, specifically relative number of fine roots, was measured at within 2 weeks of harvest using a digital imaging technique. Fine roots are related to water uptake productivity, which is directly tied to the ability of the plant to access soil-water under stress.

Where [4] appears, read: 250 gai/ha, foliar applied once (V7), 0% irrigated.

Molecules are shown by their SMILES. Marks after values point to notes of the source that are not given here.

With `CO/C=C(/C(=O)OC)c1ccccc1Oc1cc(Oc2ccccc2C#N)ncn1` [Azoxystrobin, azoxystrobin], in the test on corn [1] (261 gai/ha, SDI chemigated twice (V6 & R1)), the Yield is given as 212^ Bu./acre. For the same molecule, in the test on corn [1] (261 gai/ha, SDI chemigated), the “% Yield Increase by Product over Untr./50% irr.” value was “+16% Incr. over”, the “% increase in Water Productivity by Product over 50% irr.” value was “+18% Incr” and the “Water Prodctivity (IWUE)” value is reported as 426 pounds of corn per inch of water applied. The molecule further had a Yield in the test with corn [2] (261 gai/ha, SDI chemigated (V6 & R1), 0% irrigated dryland/rainfed) of 145.4 Bu./acre. The “% Yield Increase by Product over Untr./0% irr.” value in the test with corn [2] (261 gai/ha, SDI chemigated, 0% irrigated dryland/rainfed) is given as “+7% incr over Untr./0% irr”. Further, the Yield with corn [2] (261 gai/ha, foliar applied (V6 & R1), 0% irrigated dryland/rainfed) was 151.1 Bu./acre. Besides, in the test with corn [2] (261 gai/ha, foliar applied, 0% irrigated dryland/rainfed), the “% Yield Increase by Product over Untr./0% irr.” value was “+11% incr over Untr./0% irr”. In the test on corn [3], the “Yield (% difference from UTC)” value is 12.5† %; the “Relative number of fine roots (% difference from UTC)” value is reported as 37.3† %; the “Yield compared with the control, statistical statement” value is given as “statistically different from the control”.
In the test with corn [1] (250 gai/ha, foliar-applied twice (V3+V7)), `CCOC(=O)C1CC(=O)C(=C(O)C2CC2)C(=O)C1` (stereo not shown) [TXP, trinexapac-ethyl] returned a Yield of 235 Bu./acre. Besides, in the test with corn [1] (250 gai/ha, foliar-applied), the “% Yield Increase by Product over Untr./50% irr.” value is “+28% Incr. over” and the “Water Prodctivity (IWUE)” value is reported as 462 pounds of corn per inch of water applied. Besides, in the test on corn [2] (setting [4]), the “% Yield Increase by Product over Untr./0% irr.” value is on record as “+4% incr over Untr./0% irr” and the Yield is recorded as 141.9 Bu./acre. In addition, in the test with corn [3], the “Yield (% difference from UTC)” value is given as 15.6† %; the “Relative number of fine roots (% difference from UTC)” value was 34.3† %; the “Yield compared with the control, statistical statement” value is on record as “statistically different from the control”.

These data come from US20140096445A1, “METHOD OF CULTIVATION IN WATER DEFICIT CONDITIONS” (SYNGENTA PARTICIPATIONS AG, priority 2011, published 2014).
